Test results published in the OligoGym collection.
Several values for one entry are separate records, joined by “and”; a condition that tells them apart may be missing. Equal entries are not always repeated. After the bases stand the sugars from the 5' end (letter, count) and the backbone: PS all phosphorothioate, else s phosphorothioate and o phosphodiester by linkage. Methylation of C is not given here. e = 2'-O-(2-methoxyethyl) (MOE); d = 2'-deoxy (DNA)

Target: DGAT2
Conditions: ASO

| Sequence | target mRNA inhibition (HepG2, 0.12 µM) | target mRNA inhibition (HepG2, 2.5 µM) | target mRNA inhibition (HepG2, 10 µM) | target mRNA inhibition (HepG2, 20 µM) |
| --- | --- | --- | --- | --- |
| AGCCAGGTAAGGCCGTATGC (sugars e5 d10 e5, PS) | 70% |  |  |  |
| AGCCCTCCTCGAAGATCACC (sugars e5 d10 e5, PS) | 39% |  |  |  |
| AGCCTGGATGGTGGTTGCAA (sugars e5 d10 e5, PS) |  | 73% | 78% |  |
| AGCTCAGAGACTCAGCCGCA (sugars e2 d13 e5, PS) | 86% |  |  |  |
| AGCTCATGAGAAGCTTAGAA (sugars e5 d10 e5, PS) |  | 62% | 82% |  |
| AGCTTCACCAGGGCCTCCAT (sugars e5 d10 e5, PS) | 42% |  |  |  |
| AGGAAGGAAATGCTAGGCCT (sugars e5 d10 e5, PS) | 64% |  |  |  |
| AGGCACCTGTTACTACATGT (sugars e5 d10 e5, PS) |  | 78% | 93% and 91% |  |
| AGGCATGCTTCCTCCCACTT (sugars e5 d10 e5, PS) |  | 53% | 85% |  |
| AGGCCACAGTGGCAACAGAG (sugars e5 d10 e5, PS) | 54% |  |  |  |
| AGGGCACCAGCCCCCAGGTG (sugars e5 d10 e5, PS) | 29% |  |  |  |
| AGGTAAGGCCGTATGCCTGG (sugars e3 d14 e3, PS) | 67% |  |  |  |
| AGGTAAGGCCGTATGCCTGG (sugars e5 d10 e5, PS) | 72% |  |  |  |
| AGTAAGCCTCGGTGTCCTCT (sugars e5 d10 e5, PS) |  | 61% and 76% and 75% | 92% and 91% and 95% |  |
| AGTAGTCTCGAAAGTAGCGC (sugars e5 d10 e5, PS) | 39% |  |  |  |
| AGTCACTGACTCACAACAGC (sugars e5 d10 e5, PS) |  | 45% | 83% |  |
| AGTCTTCCTTCTCCTCCACC (sugars e5 d10 e5, PS) |  | 69% | 84% |  |
| AGTGCTTTCTAAGTACCCTT (sugars e5 d10 e5, PS) |  | 91% and 88% | 90% and 94% |  |
| AGTTTCACAAAGCCCTTGCG (sugars e5 d10 e5, PS) | 25% |  |  |  |
| ATACCTTATCTTTGTCCACA (sugars e5 d10 e5, PS) |  | 79% | 94% |  |
| ATAGCATTGCCACTCCCATT (sugars e3 d14 e3, PS) | 71% |  |  |  |
| ATAGTTCCTGGTGGTCAGCA (sugars e5 d10 e5, PS) | 46% |  |  |  |
| ATCACAGAATTATCAGCAGT (sugars e5 d10 e5, PS) |  | 59% | 92% |  |

| Sequence | target mRNA inhibition (HepG2, 0.12 µM) | target mRNA inhibition (HepG2, 2.5 µM) | target mRNA inhibition (HepG2, 10 µM) | target mRNA inhibition (HepG2, 20 µM) |
| --- | --- | --- | --- | --- |
| ATCACAGAGCTTGGTTCATC (sugars e5 d10 e5, PS) |  | 61% and 44% | 93% and 85% |  |
| ATCACTTGCTTGAGGTCAGG (sugars e5 d10 e5, PS) |  | 70% | 90% |  |
| ATCCAGAGACTGAATTCTAG (sugars e5 d10 e5, PS) |  | 61% | 88% |  |
| ATCCATGTCATCAGCCACCC (sugars e5 d10 e5, PS) |  | 61% and 63% | 86% and 80% |  |
| ATCCCAACTCTGCCATTTAA (sugars e5 d10 e5, PS) |  | 60% | 90% |  |
| ATCCTGGAGGCCAGTCCAGG (sugars e5 d10 e5, PS) | 18% |  |  |  |
| ATGACCTTGGGTCAGAGGAA (sugars e5 d10 e5, PS) |  | 61% | 46% |  |
| ATGAGCTCTCAAGTCTTCCT (sugars e5 d10 e5, PS) |  | 67% | 93% |  |
| ATGCCAATGCCTAGGTCACA (sugars e5 d10 e5, PS) |  | 78% | 91% |  |
| ATGCCTGAGGGCAGCAGTGT (sugars e5 d10 e5, PS) | 45% |  |  |  |
| ATGGAGTGACAGGGCAGGAA (sugars e5 d10 e5, PS) | 59% |  |  |  |
| ATGGTGTGTTGGCTCCCTGT (sugars e5 d10 e5, PS) |  | 53% | 53% |  |
| ATTCATCTTTCCAGATCCGG (sugars e5 d10 e5, PS) |  | 92% | 88% |  |
| CAAACAGATTAAAGTTGCTC (sugars e5 d10 e5, PS) |  | 78% and 72% | 90% and 91% |  |
| CAAAGATATAGTTCCTGGTG (sugars e5 d10 e5, PS) | 61% |  |  |  |
| CAACAGGCTCTGGTTCCATG (sugars e5 d10 e5, PS) | 56% |  |  |  |
| CAAGGATGACCTTGGGTCAG (sugars e5 d10 e5, PS) |  | 18% | 44% |  |
| CAAGGCTGAGTCTGTGCTGC (sugars e5 d10 e5, PS) | 24% |  |  |  |
| CACAATGGGAATGGTATCGC (sugars e5 d10 e5, PS) |  | 59% | 91% |  |
| CACACAGCCCAGTTTCGGAC (sugars e5 d10 e5, PS) | 24% |  |  |  |
| CACAGTCATCTTGTGTACAT (sugars e5 d10 e5, PS) |  | 74% and 76% | 92% and 93% |  |
| CACCAGGGCCTCCATGTACA (sugars e2 d13 e5, PS) | 69% |  |  |  |
| CACCAGGGCCTCCATGTACA (sugars e5 d10 e5, PS) |  | 31% | 69% | 26% |

| Sequence | target mRNA inhibition (HepG2, 0.12 µM) | target mRNA inhibition (HepG2, 2.5 µM) | target mRNA inhibition (HepG2, 10 µM) | target mRNA inhibition (HepG2, 20 µM) |
| --- | --- | --- | --- | --- |
| CACCATAATCTGCACAGGTT (sugars e5 d10 e5, PS) |  | 86% and 94% | 88% and 93% |  |
| CACCTGCTTGTACACTTCAT (sugars e5 d10 e5, PS) |  | 59% | 90% |  |
| CACTAATTCTGGGCTTCCAG (sugars e5 d10 e5, PS) |  | 64% | 96% |  |
| CACTGGAGCACTGAGATGAC (sugars e2 d13 e5, PS) | 61% |  |  |  |
| CACTGGAGCACTGAGATGAC (sugars e3 d14 e3, PS) | 55% |  |  |  |
| CACTTGATCTGGGACCCAAA (sugars e5 d10 e5, PS) |  | 41% | 92% |  |
| CACTTGCTTGAGGTCAGGGT (sugars e5 d10 e5, PS) |  | 81% and 75% | 81% and 74% |  |
| CAGATACCTCCAGACATCAG (sugars e5 d10 e5, PS) | 38% |  |  |  |
| CAGCACTAATTTTTACAACT (sugars e5 d10 e5, PS) |  | 86% | 95% |  |
| CAGCACTGACATGGTAAGTC (sugars e5 d10 e5, PS) |  | 79% and 69% | 92% and 97% |  |
| CAGCAGGTTGTGTGTCTTCA (sugars e2 d13 e5, PS) | 57% |  |  |  |
| CAGCTAATGATACAAGGTTG (sugars e5 d10 e5, PS) | 55% |  |  |  |
| CAGCTGGATGGGAAAGTAGT (sugars e5 d10 e5, PS) | 21% |  |  |  |
| CAGCTGTGATGACTTCCCAG (sugars e5 d10 e5, PS) |  | 49% | 81% |  |
| CAGGACCCACTGGAGCACTG (sugars e2 d13 e5, PS) | 78% |  |  |  |
| CAGGACCCACTGGAGCACTG (sugars e3 d14 e3, PS) | 71% |  |  |  |
| CAGGCAGCCTGAAGGACACT (sugars e5 d10 e5, PS) | 49% |  |  |  |
| CAGGCAGGTGTCAGAGGGCT (sugars e5 d10 e5, PS) | 21% |  |  |  |
| CAGGCATGGAGCTCAGAGAC (sugars e5 d10 e5, PS) | 57% |  |  |  |
| CAGGGTCCTCTCCGCTGCCT (sugars e5 d10 e5, PS) |  | 78% and 80% | 85% and 87% |  |
| CAGGTAAGGCCGTATGCCTG (sugars e2 d13 e5, PS) | 59% |  |  |  |
| CAGGTAAGGCCGTATGCCTG (sugars e3 d14 e3, PS) | 72% |  |  |  |
| CAGTTTCGGACCCACTGTGA (sugars e2 d13 e5, PS) | 77% |  |  |  |

| Sequence | target mRNA inhibition (HepG2, 0.12 µM) | target mRNA inhibition (HepG2, 2.5 µM) | target mRNA inhibition (HepG2, 10 µM) | target mRNA inhibition (HepG2, 20 µM) |
| --- | --- | --- | --- | --- |
| CATACTAGACTATGCAGCCT (sugars e5 d10 e5, PS) |  | 89% and 69% | 97% and 93% |  |
| CATTGCCACTCCCATTCTTT (sugars e2 d13 e5, PS) | 40% |  |  |  |
| CCAAGCAGGAGCTGGACAGA (sugars e5 d10 e5, PS) | 19% |  |  |  |
| CCAATGCACCTTGTATTAAA (sugars e5 d10 e5, PS) |  | 72% | 92% |  |
| CCAATGCCTAGGTCACA (sugars e3 d10 e4, PS) |  | 61% | 83% |  |
| CCACCACCTAGAACAGGGCA (sugars e5 d10 e5, PS) | 55% |  |  |  |
| CCACTGGAGCACTGAGATGA (sugars e5 d10 e5, PS) | 71% |  |  |  |
| CCACTGTGACCTCCTGCCAC (sugars e5 d10 e5, PS) | 30% |  |  |  |
| CCAGCCCCCAGGTGTCGGAG (sugars e5 d10 e5, PS) | 50% |  |  |  |
| CCAGGTAAGGCCGTATGCCT (sugars e3 d14 e3, PS) | 71% |  |  |  |
| CCAGGTGTCGGAGGAGAAGA (sugars e5 d10 e5, PS) | 53% |  |  |  |
| CCAGTTTCGGACCCACTGTG (sugars e3 d14 e3, PS) | 82% |  |  |  |
| CCATGTCAGAGAGGCTC (sugars e3 d10 e4, PS) |  | 81% and 76% |  |  |
| CCATGTCAGAGAGGCTCAGC (sugars e5 d10 e5, PS) |  | 45% | 86% |  |
| CCCACTGGAGCACTGAGATG (sugars e2 d13 e5, PS) | 70% |  |  |  |
| CCCACTGGGACATCTGGCCC (sugars e5 d10 e5, PS) |  | 66% | 88% |  |
| CCCCCATCCTCATCCTGGAG (sugars e5 d10 e5, PS) | 7% |  |  |  |
| CCGGACTGAATGTCACC (sugars e3 d10 e4, PS) |  | 79% and 82% |  |  |
| CCTAAGGAGTGAGGGTATCT (sugars e5 d10 e5, PS) |  | 39% and 50% | 87% and 92% |  |
| CCTAGGTACAAGTTTCTCCA (sugars e5 d10 e5, PS) |  | 65% | 87% |  |
| CCTCAGGAAGGCACAGAAAA (sugars e5 d10 e5, PS) | 40% |  |  |  |
| CCTCCAGACATCAGGTACTC (sugars e5 d10 e5, PS) | 29% |  |  |  |
| CCTCCAGGACCTCAGTCTCC (sugars e5 d10 e5, PS) | 66% |  |  |  |
